Measurements as given in ChEMBL document CHEMBL1795334, “Towards predictive inhibitor design for the EGFR autophosphorylation activity” (Eur J Med Chem, 2008).

Target: Epidermal growth factor receptor (Homo sapiens, UniProt P00533)
Experiment: Inhibition autophosphorylation of EGFR in human DiFi cells after 2 hrs by ELISA
Format: cell-based

Sequence of Epidermal growth factor receptor (P00533 whole entry): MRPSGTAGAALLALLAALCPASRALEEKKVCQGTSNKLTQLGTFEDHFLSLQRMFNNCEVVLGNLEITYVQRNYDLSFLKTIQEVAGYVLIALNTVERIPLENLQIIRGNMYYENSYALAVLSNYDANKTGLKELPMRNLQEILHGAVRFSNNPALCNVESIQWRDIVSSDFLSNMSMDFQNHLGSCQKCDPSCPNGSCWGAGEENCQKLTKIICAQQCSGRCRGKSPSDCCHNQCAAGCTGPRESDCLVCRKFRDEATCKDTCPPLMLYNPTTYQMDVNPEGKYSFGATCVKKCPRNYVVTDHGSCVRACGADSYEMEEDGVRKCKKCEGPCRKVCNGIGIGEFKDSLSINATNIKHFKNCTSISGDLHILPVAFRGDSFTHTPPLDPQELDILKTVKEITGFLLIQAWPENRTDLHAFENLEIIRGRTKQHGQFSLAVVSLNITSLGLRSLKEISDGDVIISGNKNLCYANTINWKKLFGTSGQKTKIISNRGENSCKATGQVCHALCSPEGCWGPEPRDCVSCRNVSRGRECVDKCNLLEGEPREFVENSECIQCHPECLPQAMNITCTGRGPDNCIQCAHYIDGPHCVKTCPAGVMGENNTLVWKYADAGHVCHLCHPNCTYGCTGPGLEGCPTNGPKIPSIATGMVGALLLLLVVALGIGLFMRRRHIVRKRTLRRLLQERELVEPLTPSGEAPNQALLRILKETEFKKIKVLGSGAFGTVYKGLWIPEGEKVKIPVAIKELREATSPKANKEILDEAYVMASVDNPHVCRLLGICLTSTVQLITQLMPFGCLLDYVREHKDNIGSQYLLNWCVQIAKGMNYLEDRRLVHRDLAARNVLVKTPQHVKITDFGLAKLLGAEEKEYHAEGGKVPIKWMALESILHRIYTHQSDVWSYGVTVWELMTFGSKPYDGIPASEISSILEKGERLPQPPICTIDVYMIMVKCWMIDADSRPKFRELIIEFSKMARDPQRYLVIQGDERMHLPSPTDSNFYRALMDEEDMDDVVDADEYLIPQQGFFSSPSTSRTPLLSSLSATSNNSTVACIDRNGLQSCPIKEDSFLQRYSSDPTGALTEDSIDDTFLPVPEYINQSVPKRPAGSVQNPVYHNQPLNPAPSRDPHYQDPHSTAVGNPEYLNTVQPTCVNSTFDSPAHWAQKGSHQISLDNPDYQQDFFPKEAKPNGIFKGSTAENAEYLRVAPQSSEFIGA

Row | SMILES | IC50
1 | COc1cc2ncc(C#N)c(Nc3ccc(C)c(Cl)c3)c2cc1OC | 1.48 µM
2 | COc1cc2ncc(C#N)c(Nc3cccc(Br)c3C)c2cc1OC | 0.832 µM
3 | CCOc1cc2c(Nc3cccc(Br)c3)c(C#N)cnc2cc1OC | 33.1 µM
4 | COc1cc2ncc(C#N)c(Nc3cccc(N)c3)c2cc1OC | 0.813 µM
5 | COc1cc2ncc(C#N)c(Nc3cccc(C(N)=O)c3)c2cc1OC | 7.76 µM
6 | COc1cc2ncc(C#N)c(Nc3ccc(Br)c(C)c3)c2cc1OC | 0.617 µM
7 | COc1cc2ncc(C#N)c(Nc3cccc(Cl)c3)c2cc1OC | 0.182 µM
8 | CCOc1cc2ncc(C#N)c(Nc3ccc(F)c(Cl)c3)c2cc1OCC | 0.977 µM
9 | COc1cc2c(C#N)cnc(Nc3cccc(Cl)c3)c2cc1OC | 89.1 µM
10 | COc1cc2ncc(C#N)c(Nc3ccc(Cl)cc3F)c2cc1OC | 13.8 µM
11 | COc1cc2ncc(C#N)c(Nc3ccc(O)c(Cl)c3)c2cc1OC | 9.12 µM
12 | COc1cc2ncc(C#N)c(Nc3ccc(F)cc3)c2cc1OC | 47.9 µM
13 | COc1cc2ncc(C(=O)O)c(Nc3cccc(Br)c3)c2cc1OC | 33.9 µM
14 | COc1cc2ncc(C#N)c(Nc3ccccc3Br)c2cc1OC | 4.17 µM
15 | COCOc1cc2ncc(C#N)c(Nc3cccc(Br)c3)c2cc1OCOC | 6.76 µM
16 | COc1cc2ncc(C#N)c(Nc3cccc(C#N)c3)c2cc1OC | 14.1 µM
17 | COc1cc2ncc(C#N)c(Nc3ccc(C)c(Br)c3)c2cc1OC | 1.78 µM
18 | CCOc1cc2ncc(C#N)c(Nc3cccc(Br)c3)c2cc1OC | 21.4 µM
19 | COc1cc2ncc(C#N)c(Nc3cccc(C(C)C)c3)c2cc1OC | 61.7 µM
20 | COc1cc2ncc(C#N)c(Nc3cccc(SC)c3)c2cc1OC | 0.759 µM
21 | COc1cc2ncc(C#N)c(Nc3cccc(O)c3)c2cc1OC | 6.31 µM
22 | CCOc1cc2ncc(C#N)c(Nc3cccc(Br)c3)c2cc1OCC | 0.417 µM
23 | COc1cc2ncc(C=O)c(Nc3cccc(Br)c3)c2cc1OC | 3.39 µM
24 | COc1cc2ncc(C#N)c(Nc3cccc(NC(C)=O)c3)c2cc1OC | 69.2 µM
